Laboratory results reported in patent US20240279603A1, “METHODS OF PROCESSING ADULT NEURAL CELLS FROM MAMMALS AND ASSAYS THEREOF” (THE TEXAS A&M UNIVERSITY SYSTEM, priority 2021, published 2024).

System: primary cortical neurons
Assay: Analysis of neurite outgrowth and survival of cultured adult cortical neurons (TUBB3/DAPI high-content imaging)
Assay type: cell-based, mouse
Details: for average neurite length vs Vehicle / number of valid neurons vs Vehicle / total neurite outgrowth vs Vehicle: 150 nM 7-epi Paclitaxel; for average neurite length vs Vehicle / number of valid neurons vs Vehicle / total neurite outgrowth vs Vehicle / overall screening result: 3DIV; for overall screening result: 7-epi Paclitaxel
Method: The instant example provides an exemplary protocol, method, and application of processing and screening using adult cortical neurons obtained from adult mice. In particular, the instant example used young adult and middle-aged male and female wild-type C57Bl/6 mice in which the young adult group comprised mice of 4-9 weeks of age and the middle-age group comprised mice of 40-48 weeks of age.
Approximately 20 μL of 50 μg/mL Poly-D-Lysine (PDL, Sigma Aldrich, A-003-M) was added onto the wells of 384-well glass bottom (Brooks Life Sciences, MGB101-1-2-LG-L) or plastic bottom (Greiner-Bio, 781091) plates and incubated inside a 5% CO2 incubator at 37° C. for 48 hours. After incubation, the wells of the plates were washed 5 times with H2O and set to dry overnight at room temperature and were used within 24 hours after drying.
Mice were euthanized and their brains were extracted and placed in cold Hank's balanced salt solution (HBSS) followed by microdissection of the cortex. Up to 1.25 grams of cortical tissue were placed in gentleMACS™ C tubes (Miltenyi Biotec, #130-093-237), where each tube contained 5 mL of 0.3 mg/mL papain (Worthington, LS003126) diluted in HBSS.
The gentleMACS™ C tubes were placed on the gentleMACS™ Octo Dissociator with heaters (Miltenyi Biotec, #130-096-427) with heating cuffs attached and underwent the gentleMACS Program 37C_ABDK_01 protocol. After protocol completion, the contents of the gentleMACS™ C Tube were strained through a 70 μm cell strainer (Miltenyi Biotec, #130-110-916) placed on top of a 15 mL conical centrifuge tube. Then, 7 mL of cold Dulbecco's Phosphate-Buffered Saline with glucose and pyruvate (DPBS, Thermo Fisher Scientific, 14287072) was added into each of the 15 mL conical centrifuge tubes on top of the strained cells. The 15 mL tubes were centrifuged at 300×g for 10 minutes at 4° C. before aspirating the supernatant completely.
Debris removal solution was made by adding 1800 μL of Debris Removal Concentrate (Miltenyi Biotec, #130-109-398) to 6200 μL of cold DPBS. The remaining pellet inside the 15 mL tubes was resuspended with 8 mL of Debris Removal Solution. Very slowly, 4 mL of cold DPBS was dispensed on top of the debris removal solution and cell mixture in each 15 mL tube forming a clear layer on top. The 15 mL tubes were centrifuged at 3000×g for 10 minutes at 4° C. with slow acceleration and deceleration. The top clear and middle debris layers were aspirated leaving the milky mixture beneath the debris layer untouched. 6 mL of DPBS was added onto the milky mixture and mixed gently before centrifuging at 300×g for 5 minutes at 4° C. All supernatant was aspirated afterwards.
Red Blood Cell Remover Solution was made by mixing 125 μL of Red Blood Cell Lysis Solution 10× (Miltenyi Biotec, #130-094-183) with 1125 μL of H2O. The remaining pellet was resuspended in 1.25 mL of Red Blood Cell Remover Solution and incubated for 10 minutes at 4° C. before the addition of 12 mL of 0.5% bovine serum albumin (BSA, Miltenyi Biotec, #130-091-376) diluted in DPBS. The mixture was centrifuged at 300×g for 5 minutes at 4° C. with the supernatant aspirated completely afterwards. The remaining pellet was resuspended in 80 μL of 0.5% BSA and 20 μL of Non-Neuronal Cells Biotin-Antibody Cocktail (Miltenyi Biotec, #130-115-389) and incubated for 5 minutes at 4° C. Cells were washed by adding 2 mL of 0.5% BSA followed by centrifugation at 300×g for 5 minutes at 4° C. followed by aspiration of the supernatant. The remaining pellet was resuspended in 80 μL of 0.5% BSA and 20 μL of Anti-Biotin MicroBeads (Miltenyi Biotec, #130-115-389) and incubated for 10 minutes at 4° C.
After the addition of 6 mL 0.5% BSA, the mixture was flowed through 0.5% BSA primed LS columns (Miltenyi Biotec, #130-042-401). The negative fraction containing the majority of neurons was collected and centrifuged at 300×g for 5 minutes at 4° C. and resuspended in neuron media. […]

[1] = 5 μM (S)-H-1152 vs Vehicle (0.05% DMSO), young adult male mice, 2DIV, 10,000 cells plated per well, two-way ANOVA
[2] = young adult male mice, 2DIV, PDL coated wells, laminin coating 10 μg/mL
[3] = young adult male mice, 2DIV, relative to 0% DMSO

Compound: CC(=O)O[C@H]1C(=O)[C@]2(C)[C@H](O)C[C@H]3OC[C@@]3(OC(C)=O)[C@H]2[C@H](OC(=O)c2ccccc2)[C@]2(O)C[C@H](OC(=O)[C@H](O)[C@@H](NC(=O)c3ccccc3)c3ccccc3)C(C)=C1C2(C)C [7-epi Paclitaxel]
- average neurite length vs Vehicle (middle-aged male cohort): significantly increased
- number of valid neurons vs Vehicle (middle-aged male cohort): without affecting
- total neurite outgrowth vs Vehicle (middle-aged male cohort): without affecting
- average neurite length vs Vehicle (young adult female cohort): significantly increased
- number of valid neurons vs Vehicle (young adult female cohort): significantly decreased
- total neurite outgrowth vs Vehicle (young adult female cohort): significantly decreased
- average neurite length vs Vehicle (young adult male cohort): significantly increased
- number of valid neurons vs Vehicle (young adult male cohort): significantly decreased
- total neurite outgrowth vs Vehicle (young adult male cohort): significantly decreased
- overall screening result (middle-aged male neurons): overall positive result
- overall screening result (young adult neurons): overall negative result

Compound: Cc1cncc2cccc(S(=O)(=O)N3CCCNC[C@@H]3C)c12 [(S)-H-1152]
- average neurite length [1]: significantly increased
- number of valid neurons [1]: significantly increased
- slope of the total neurite outgrowth linear regression line against cell plating density (5 μM (S)-H-1152 vs Vehicle, young adult male mice, 2DIV, 1,500-15,000 cells per well): steeper increase

Compound: laminin
- average neurite length, change relative to the control group (no B27+ supplement or laminin coating) [2]: did not induce a significant changes
- number of valid neurons, change relative to the control group (no B27+ supplement or laminin coating) [2]: did not induce a significant changes
- total neurite outgrowth, change relative to the control group (no B27+ supplement or laminin coating) [2]: did not induce a significant changes

Compound: C[S+](C)[O-] [DMSO, Dimethyl sulfoxide]
- correlation between average neurite length and % DMSO in the media (linear regression) [3]: significant negative correlation
- correlation between number of valid neurons per well and % DMSO in the media (linear regression) [3]: significant negative correlation
- correlation between total neurite outgrowth and % DMSO in the media (linear regression) [3]: significant negative correlation
